Measured values published in article PMC6688997 (Nature Communications, 2019).

Legend:
Experiment in all cases: Kinase assay, 1 mM ATP
Format in all cases: biochemical
[1] = molecular target: T1, EPHA4 (Homo sapiens, UniProt P54764)
T1 construct: purchased Carna Biosciences
Description: (§1) An off-chip mobility shift assay was performed by Carna Biosciences, Inc. (Kobe, Japan), according to their product instructions. […] The IC50 values were estimated according to the four-parameter logistic model.

[2] = molecular target: CDK2/CycE1 (Homo sapiens, UniProt P24941)
Description: as §1

[3] = molecular target: CaMK1α (Homo sapiens, UniProt Q14012)
Description: as §1

[4] = molecular target: T2, TYRO3 (Homo sapiens, UniProt Q06418)
T2 construct: purchased Carna Biosciences
Description: as §1

[5] = molecular target: T3, EGFR(T790M) (Homo sapiens, UniProt P00533, T790M)
T3 construct: purchased Carna Biosciences
Description: as §1

[6] = molecular target: skMLCK (Homo sapiens, UniProt Q9H1R3)
Description: as §1

[7] = molecular target: p38α (Homo sapiens, UniProt Q16539)
p38α, sequence (Q16539 whole entry): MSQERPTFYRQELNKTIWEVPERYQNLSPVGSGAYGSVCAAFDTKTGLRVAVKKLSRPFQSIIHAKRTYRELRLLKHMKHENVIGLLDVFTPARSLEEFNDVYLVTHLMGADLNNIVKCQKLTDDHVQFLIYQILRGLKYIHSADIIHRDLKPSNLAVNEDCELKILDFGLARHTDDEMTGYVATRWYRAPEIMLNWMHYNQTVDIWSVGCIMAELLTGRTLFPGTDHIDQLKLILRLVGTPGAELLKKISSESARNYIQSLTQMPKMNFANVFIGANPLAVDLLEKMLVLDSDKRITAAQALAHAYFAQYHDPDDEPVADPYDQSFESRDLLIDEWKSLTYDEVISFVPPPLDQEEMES
Description: as §1

[8] = molecular target: T4, HGK (Homo sapiens, UniProt O95819)
T4 construct: purchased Carna Biosciences
Description: as §1

[9] = molecular target: T5, MER (Homo sapiens, UniProt Q12866)
T5 construct: purchased Carna Biosciences
Description: as §1

[10] = molecular target: CDK9/CycT1 (Homo sapiens, UniProt P50750)
Description: as §1

[11] = molecular target: T6, TSSK1 (Homo sapiens, UniProt Q9BXA7)
T6 construct: purchased Carna Biosciences
Description: as §1

[12] = molecular target: GSK3α (Homo sapiens, UniProt P49840)
GSK3α, sequence (P49840 whole entry): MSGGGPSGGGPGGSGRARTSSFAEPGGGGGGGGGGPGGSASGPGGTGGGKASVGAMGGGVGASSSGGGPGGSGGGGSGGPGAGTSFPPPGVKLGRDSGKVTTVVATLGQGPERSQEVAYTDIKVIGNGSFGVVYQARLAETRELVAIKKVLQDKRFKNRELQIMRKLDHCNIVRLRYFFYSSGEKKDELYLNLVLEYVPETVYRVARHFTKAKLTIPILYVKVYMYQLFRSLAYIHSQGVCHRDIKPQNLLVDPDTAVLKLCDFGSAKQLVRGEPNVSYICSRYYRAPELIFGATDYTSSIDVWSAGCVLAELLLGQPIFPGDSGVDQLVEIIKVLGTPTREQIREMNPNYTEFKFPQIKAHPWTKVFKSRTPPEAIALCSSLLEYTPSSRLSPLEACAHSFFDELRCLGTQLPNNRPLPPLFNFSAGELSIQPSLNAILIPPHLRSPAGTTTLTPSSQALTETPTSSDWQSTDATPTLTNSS
Description: as §1

[13] = molecular target: T7, FGFR3 (Homo sapiens, UniProt P22607)
T7 construct: purchased Carna Biosciences
Description: as §1

[14] = molecular target: T8, EGFR(d746-750/T790M) (Homo sapiens, UniProt P00533, DEL746-750/T790M)
T8 construct: purchased Carna Biosciences
Description: as §1

[15] = molecular target: T9, RSK4 (Homo sapiens, UniProt Q9UK32)
T9 construct: purchased Carna Biosciences
Description: as §1

[16] = molecular target: JNK2 (Homo sapiens, UniProt P45984)
JNK2, sequence (P45984 whole entry): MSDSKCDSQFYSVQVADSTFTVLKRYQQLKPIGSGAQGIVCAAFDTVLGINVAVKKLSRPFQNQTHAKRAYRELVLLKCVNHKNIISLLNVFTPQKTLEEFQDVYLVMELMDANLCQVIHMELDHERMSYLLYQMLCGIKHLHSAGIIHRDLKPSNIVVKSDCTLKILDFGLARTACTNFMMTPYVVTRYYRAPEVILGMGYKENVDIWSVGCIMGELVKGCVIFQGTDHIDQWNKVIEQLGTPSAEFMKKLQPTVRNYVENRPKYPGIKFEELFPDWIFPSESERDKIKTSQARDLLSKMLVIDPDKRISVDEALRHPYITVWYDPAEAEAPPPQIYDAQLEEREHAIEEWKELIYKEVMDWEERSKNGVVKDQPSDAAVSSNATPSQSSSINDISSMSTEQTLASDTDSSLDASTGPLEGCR
Description: as §1

[17] = molecular target: T10, TNIK (Homo sapiens, UniProt Q9UKE5)
T10 construct: purchased Carna Biosciences
Description: as §1

[18] = molecular target: CLK2 (Homo sapiens, UniProt P49760)
Description: as §1

[19] = molecular target: T11, SGK (Homo sapiens, UniProt O00141)
T11 construct: purchased Carna Biosciences
Description: as §1

[20] = molecular target: EPHA2 (Homo sapiens, UniProt P29317)
Description: as §1

[21] = molecular target: T12, MAPKAPK2 (Homo sapiens, UniProt P49137)
T12 construct: purchased Carna Biosciences
T12 sequence (P49137 whole entry): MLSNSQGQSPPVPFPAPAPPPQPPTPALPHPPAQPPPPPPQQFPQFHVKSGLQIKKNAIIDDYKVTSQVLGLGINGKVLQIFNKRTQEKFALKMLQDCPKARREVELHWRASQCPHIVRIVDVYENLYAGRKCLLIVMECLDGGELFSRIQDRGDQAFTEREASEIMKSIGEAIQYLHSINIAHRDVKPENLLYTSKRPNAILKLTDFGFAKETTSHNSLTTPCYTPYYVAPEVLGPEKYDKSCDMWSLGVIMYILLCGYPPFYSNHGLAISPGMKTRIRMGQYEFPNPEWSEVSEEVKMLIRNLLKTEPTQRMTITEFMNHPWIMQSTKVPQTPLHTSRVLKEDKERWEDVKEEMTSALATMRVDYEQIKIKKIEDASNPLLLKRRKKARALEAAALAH
Description: as §1

[22] = molecular target: BTK (Homo sapiens, UniProt Q06187)
BTK, sequence (Q06187 whole entry): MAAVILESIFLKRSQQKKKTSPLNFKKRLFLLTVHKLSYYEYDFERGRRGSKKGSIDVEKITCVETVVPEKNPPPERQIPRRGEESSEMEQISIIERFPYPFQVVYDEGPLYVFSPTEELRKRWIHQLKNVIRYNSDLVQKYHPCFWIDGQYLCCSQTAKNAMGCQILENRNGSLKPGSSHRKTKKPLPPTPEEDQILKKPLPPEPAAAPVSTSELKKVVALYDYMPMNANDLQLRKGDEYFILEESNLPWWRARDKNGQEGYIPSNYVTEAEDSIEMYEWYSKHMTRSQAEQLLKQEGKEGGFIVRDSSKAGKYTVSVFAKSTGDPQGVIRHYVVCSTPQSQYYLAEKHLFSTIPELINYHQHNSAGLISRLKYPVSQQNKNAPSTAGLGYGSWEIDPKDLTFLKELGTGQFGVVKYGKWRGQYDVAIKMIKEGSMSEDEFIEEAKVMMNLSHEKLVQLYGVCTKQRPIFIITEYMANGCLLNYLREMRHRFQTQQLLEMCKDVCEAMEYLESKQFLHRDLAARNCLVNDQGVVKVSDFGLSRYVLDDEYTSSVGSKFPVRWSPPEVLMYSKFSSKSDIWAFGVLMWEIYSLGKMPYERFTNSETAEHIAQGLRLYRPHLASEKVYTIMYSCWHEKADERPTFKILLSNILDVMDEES
Description: as §1

[23] = molecular target: T13, TNK1 (Homo sapiens, UniProt Q13470)
T13 construct: purchased Carna Biosciences
Description: as §1

[24] = molecular target: EGFR (Homo sapiens, UniProt P00533)
Description: as §1

[25] = molecular target: AurB (Homo sapiens, UniProt Q96GD4)
Description: as §1

[26] = molecular target: EPHB2 (Homo sapiens, UniProt P29323)
Description: as §1

[27] = molecular target: T14, PYK2 (Homo sapiens, UniProt Q14289)
T14 construct: purchased Carna Biosciences
Description: as §1

[28] = molecular target: EPHB3 (Homo sapiens, UniProt P54753)
Description: as §1

[29] = molecular target: NEK2 (Homo sapiens, UniProt P51955)
Description: as §1

[30] = molecular target: CSK (Homo sapiens, UniProt P41240)
CSK, sequence (P41240 whole entry): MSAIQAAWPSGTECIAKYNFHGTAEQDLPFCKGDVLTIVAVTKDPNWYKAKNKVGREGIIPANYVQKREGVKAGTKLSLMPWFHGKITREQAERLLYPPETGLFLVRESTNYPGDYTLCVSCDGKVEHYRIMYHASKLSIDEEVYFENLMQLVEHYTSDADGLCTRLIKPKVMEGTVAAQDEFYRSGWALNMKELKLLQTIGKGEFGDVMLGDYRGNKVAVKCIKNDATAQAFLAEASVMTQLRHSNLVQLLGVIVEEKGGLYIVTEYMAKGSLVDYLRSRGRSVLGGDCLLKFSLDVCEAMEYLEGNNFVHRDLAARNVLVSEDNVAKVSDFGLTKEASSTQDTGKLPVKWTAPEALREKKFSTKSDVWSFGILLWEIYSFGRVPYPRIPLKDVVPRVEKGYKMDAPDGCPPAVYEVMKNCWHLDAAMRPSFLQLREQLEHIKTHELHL
Description: as §1

[31] = molecular target: T15, LYNb (Homo sapiens, UniProt P07948)
T15 construct: purchased Carna Biosciences
Description: as §1

[32] = molecular target: CLK1 (Homo sapiens, UniProt P49759)
Description: as §1

[33] = molecular target: AurA (Homo sapiens, UniProt O14965)
Description: as §1

[34] = molecular target: FES (Homo sapiens, UniProt P07332)
Description: as §1

[35] = molecular target: HIPK4 (Homo sapiens, UniProt Q8NE63)
Description: as §1

[36] = molecular target: LYNa (Homo sapiens, UniProt P07948)
Description: as §1

[37] = molecular target: SRC (Homo sapiens, UniProt P12931)
Description: as §1

[38] = molecular target: CDC2/CycB1 (Homo sapiens, UniProt P06493)
CDC2/CycB1, sequence (P06493 whole entry): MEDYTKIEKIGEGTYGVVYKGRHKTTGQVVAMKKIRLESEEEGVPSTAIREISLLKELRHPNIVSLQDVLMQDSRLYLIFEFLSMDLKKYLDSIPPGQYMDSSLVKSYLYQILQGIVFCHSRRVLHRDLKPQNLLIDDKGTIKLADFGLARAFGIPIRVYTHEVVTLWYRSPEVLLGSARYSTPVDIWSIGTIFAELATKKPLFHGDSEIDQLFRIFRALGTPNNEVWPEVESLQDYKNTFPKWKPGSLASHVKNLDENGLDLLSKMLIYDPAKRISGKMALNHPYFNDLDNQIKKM
CDC2/CycB1, sequence (P14635 whole entry partner): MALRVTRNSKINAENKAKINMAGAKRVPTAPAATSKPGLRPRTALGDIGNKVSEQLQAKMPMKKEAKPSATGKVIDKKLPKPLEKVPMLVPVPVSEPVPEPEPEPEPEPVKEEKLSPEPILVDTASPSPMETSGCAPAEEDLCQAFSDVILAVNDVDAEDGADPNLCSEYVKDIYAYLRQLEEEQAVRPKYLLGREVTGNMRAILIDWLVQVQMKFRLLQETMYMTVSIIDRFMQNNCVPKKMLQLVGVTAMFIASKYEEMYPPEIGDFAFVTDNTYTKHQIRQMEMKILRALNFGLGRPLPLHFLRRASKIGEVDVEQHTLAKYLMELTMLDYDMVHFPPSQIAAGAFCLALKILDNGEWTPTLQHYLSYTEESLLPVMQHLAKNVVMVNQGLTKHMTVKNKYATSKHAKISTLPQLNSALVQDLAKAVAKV
Description: as §1

[39] = molecular target: T16, PKD2 (Homo sapiens, UniProt Q9BZL6)
T16 construct: purchased Carna Biosciences
Description: as §1

[40] = molecular target: T17, RON (Homo sapiens, UniProt Q04912)
T17 construct: purchased Carna Biosciences
T17 sequence (Q04912 25-1400): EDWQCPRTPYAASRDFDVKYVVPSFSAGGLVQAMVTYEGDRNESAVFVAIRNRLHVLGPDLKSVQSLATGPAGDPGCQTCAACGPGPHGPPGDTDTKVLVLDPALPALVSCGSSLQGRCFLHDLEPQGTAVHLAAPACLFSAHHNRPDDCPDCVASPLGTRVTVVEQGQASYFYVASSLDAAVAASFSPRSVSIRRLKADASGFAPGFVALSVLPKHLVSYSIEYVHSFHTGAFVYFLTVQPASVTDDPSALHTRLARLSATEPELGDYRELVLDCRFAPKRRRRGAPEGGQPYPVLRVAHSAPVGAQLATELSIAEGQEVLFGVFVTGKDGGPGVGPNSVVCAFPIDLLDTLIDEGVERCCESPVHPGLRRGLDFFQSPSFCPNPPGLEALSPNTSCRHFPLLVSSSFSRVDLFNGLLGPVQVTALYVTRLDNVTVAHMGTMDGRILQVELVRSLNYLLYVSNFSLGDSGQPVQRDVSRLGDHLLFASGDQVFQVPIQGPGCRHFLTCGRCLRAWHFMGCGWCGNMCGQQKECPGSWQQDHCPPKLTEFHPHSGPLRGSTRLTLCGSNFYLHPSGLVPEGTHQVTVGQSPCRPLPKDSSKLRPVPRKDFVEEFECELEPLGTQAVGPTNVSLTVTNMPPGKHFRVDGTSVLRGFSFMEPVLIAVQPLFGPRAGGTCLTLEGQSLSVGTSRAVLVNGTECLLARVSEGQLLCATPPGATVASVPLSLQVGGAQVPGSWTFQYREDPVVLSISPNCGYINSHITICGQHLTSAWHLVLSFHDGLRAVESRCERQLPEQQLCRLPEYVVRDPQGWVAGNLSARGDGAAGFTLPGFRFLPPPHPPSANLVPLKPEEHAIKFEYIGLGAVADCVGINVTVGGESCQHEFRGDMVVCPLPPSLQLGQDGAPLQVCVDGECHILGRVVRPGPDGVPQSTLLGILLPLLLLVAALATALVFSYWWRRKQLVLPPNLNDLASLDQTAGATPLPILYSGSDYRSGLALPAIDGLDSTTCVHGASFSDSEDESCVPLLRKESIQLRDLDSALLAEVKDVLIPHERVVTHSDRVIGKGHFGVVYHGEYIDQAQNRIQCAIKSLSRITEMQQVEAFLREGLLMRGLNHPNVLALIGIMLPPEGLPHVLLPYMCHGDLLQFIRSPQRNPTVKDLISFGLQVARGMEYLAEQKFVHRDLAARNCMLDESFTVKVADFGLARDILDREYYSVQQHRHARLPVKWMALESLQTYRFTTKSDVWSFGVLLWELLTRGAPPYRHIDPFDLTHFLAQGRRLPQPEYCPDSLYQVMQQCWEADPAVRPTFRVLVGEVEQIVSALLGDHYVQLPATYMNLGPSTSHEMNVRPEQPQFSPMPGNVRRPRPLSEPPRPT
Description: as §1

[41] = molecular target: T18, EGFR(L861Q) (Homo sapiens, UniProt P00533, L861Q)
T18 construct: purchased Carna Biosciences
Description: as §1

[42] = molecular target: T19, FLT3 (Homo sapiens, UniProt P36888)
T19 construct: purchased Carna Biosciences
Description: as §1

## C[C@@H](N)COc1ccc(-c2cnc3ccc(N[C@H](C)c4cccc(F)c4)nn23)cc1.O=C(O)CCCCC(=O)O [DS-6051b]
[1]
  inhibition at 0.2 µM: -3.4%
[2]
  inhibition at 0.2 µM: -20.2%
[3]
  inhibition at 0.2 µM: -8.6%
[4]
  inhibition at 0.2 µM: -1.2%
[5]
  inhibition at 0.2 µM: -1.6%
[6]
  inhibition at 0.2 µM: -7.1%
[7]
  inhibition at 0.2 µM: -6.7%
[8]
  inhibition at 0.2 µM: -8%
[9]
  inhibition at 0.2 µM: 7.1%
[10]
  inhibition at 0.2 µM: -2.9%
[11]
  inhibition at 0.2 µM: -2.6%
[12]
  inhibition at 0.2 µM: -3.4%
[13]
  inhibition at 0.2 µM: 1.3%
[14]
  inhibition at 0.2 µM: -0.9%
[15]
  inhibition at 0.2 µM: -5.4%
[16]
  inhibition at 0.2 µM: -5.1%
[17]
  inhibition at 0.2 µM: -3%
[18]
  inhibition at 0.2 µM: -1.1%
[19]
  inhibition at 0.2 µM: -3.8%
[20]
  inhibition at 0.2 µM: -2.2%
[21]
  inhibition at 0.2 µM: -8.5%
[22]
  inhibition at 0.2 µM: 17.9%
[23]
  inhibition at 0.2 µM: 12.7%
[24]
  inhibition at 0.2 µM: 3.7%
[25]
  inhibition at 0.2 µM: -12.2%
[26]
  inhibition at 0.2 µM: -1.7%
[27]
  inhibition at 0.2 µM: 8.9%
[28]
  inhibition at 0.2 µM: -0.7%
[29]
  inhibition at 0.2 µM: -0.8%
[30]
  inhibition at 0.2 µM: 1%
[31]
  inhibition at 0.2 µM: 4.8%
[32]
  inhibition at 0.2 µM: 2%
[33]
  inhibition at 0.2 µM: -15.7%
[34]
  inhibition at 0.2 µM: 5.1%
[35]
  inhibition at 0.2 µM: -1.6%
[36]
  inhibition at 0.2 µM: 3.1%
[37]
  inhibition at 0.2 µM: 9%
[38]
  inhibition at 0.2 µM: -6.7%
[39]
  inhibition at 0.2 µM: -17.3%
[40]
  inhibition at 0.2 µM: 9.2%
[41]
  inhibition at 0.2 µM: -3.6%
[42]
  inhibition at 0.2 µM: 18.8%
